Measurements published in US9995734B2, “Human T cell line assay for evaluating the immunologic identity of glatiramer acetate preparations” (Mylan Inc., priority 2013, dated 2018).
Where “and” joins values, the source holds several entries; their conditions need not be identical. Equal values may be shown once.

System: Donor 1 COP T-Cell Lines
Assay: Multiplex bead cytokine assay (FlowCytoMix), Donor 1 COP T-cell lines
Type: cell-based, human
Conditions: MBP control antigen, 24 hours after Day 56 restimulation
Protocol: Culture medium was removed from cultures prepared as for proliferation assay and utilized to measure cytokine production. In most cases culture medium was collected 18-24 hours after mixing T-cells, APC, and stimulating antigen. Cytokine production was measured by ELISA or bead assay. For measuring cytokine production, 100-150 μL culture medium (100 μL if culture was to be continued, otherwise 150 μL) was removed from each well. In some cases, the culture was continued 48 hours, for a total of 72 hours of culture, and the proliferative response measured.
The concentration of multiple cytokines was measured simultaneously using FlowCytoMix™ kits (eBioscience, San Diego Calif.). These are fluorescent bead based assays consisting of beads conjugated to anti cytokine antibodies. Beads specific for each cytokine are distinguished by size and fluorescence at 670 run. Cytokine bound to each bead is detected using a phycoerythrin conjugated antibody so that the fluorescence at 585 nm reflects the concentration of cytokine in the sample. Two kits were utilized which measured different cytokine panels. The TH1/TH2 kit measures IFN-γ, IL-1β, IL-2, IL-4, IL-5, IL-6, IL-8, IL-10, IL-12p70, TNF-α (TNF) and TNF-β (LT). The TH1/TH2/TH9/TH17/TH22 kit measures […], IL-1β, IL-2, IL-4, IL-5, IL-6, IL-9, IL-10, IL-12p70, IL-13, IL-17, IL-22, and TNF-α (TNF). Both kits were used following the manufacturer's instructions.
IL-12p70, IFN-γ, IL-2, IL-10, IL-8, IL-6, IL-5, IL-4, IL-1β, TNF-α (TNF), and TNF-β (LT) secretion were measured in response to stimulation with 1, 3, or 10 μg/mL GMA, or 1, 3, or 10 μg/mL COP, as well as a no-antigen control and an MBP control, in the presence of autologous EBV-transformed B-LCL.

**Q.** With FFKNIVTPRTPPPSQGK [MBP] as the sequence, how does the IFN-γ (222-1C5) read?
**A.** 64 pg/mL

**Q.** What about the IL-2 (222-1C5) of the same sequence?
**A.** 0 pg/mL

**Q.** And the IL-5 (222-1C5)?
**A.** 0 pg/mL

**Q.** What about the IL-10 (222-1C5) of the same sequence?
**A.** 0 pg/mL

**Q.** What about the IL-13 (222-1C5) of the same sequence?
**A.** 82 pg/mL

**Q.** What about the IL-22 (222-1C5) of the same sequence?
**A.** 36 pg/mL

**Q.** What about the TNF-α (222-1C5) of the same sequence?
**A.** 9 pg/mL

**Q.** And the IFN-γ (222-2B8)?
**A.** 0 pg/mL

**Q.** What about the IL-2 (222-2B8) of the same sequence?
**A.** 0 pg/mL

**Q.** And the IL-5 (222-2B8)?
**A.** 0 pg/mL

**Q.** What about the IL-10 (222-2B8) of the same sequence?
**A.** 0 pg/mL

**Q.** What about the IL-13 (222-2B8) of the same sequence?
**A.** 26.77 pg/mL

**Q.** What about the IL-22 (222-2B8) of the same sequence?
**A.** 20.62 pg/mL

**Q.** And the TNF-α (222-2B8)?
**A.** 0 pg/mL

**Q.** What about the IFN-γ (222-2E1) of the same sequence?
**A.** 20.69 pg/mL

**Q.** And the IL-2 (222-2E1)?
**A.** 42.43 pg/mL

**Q.** What about the IL-5 (222-2E1) of the same sequence?
**A.** 0 pg/mL

**Q.** And the IL-10 (222-2E1)?
**A.** 2.28 pg/mL and 2.3 pg/mL

**Q.** And the IL-13 (222-2E1)?
**A.** 51.1 pg/mL

**Q.** And the IL-22 (222-2E1)?
**A.** 107.54 pg/mL

**Q.** What about the TNF-α (222-2E1) of the same sequence?
**A.** 13.51 pg/mL

**Q.** And the IFN-γ (222-B11 (so in the source))?
**A.** 0 pg/mL

**Q.** What about the IL-2 (222-B11 (so in the source)) of the same sequence?
**A.** 0 pg/mL

**Q.** And the IL-5 (222-B11 (so in the source))?
**A.** 0 pg/mL

**Q.** And the IL-10 (222-B11 (so in the source))?
**A.** 0 pg/mL

**Q.** What about the IL-13 (222-B11 (so in the source)) of the same sequence?
**A.** 0.83 pg/mL

**Q.** What about the IL-22 (222-B11 (so in the source)) of the same sequence?
**A.** 0 pg/mL

**Q.** And the TNF-α (222-B11 (so in the source))?
**A.** 0 pg/mL
